Data as given in paper PMC9161374 (Science Translational Medicine, 2022).
≈ marks a conversion by molar mass, not a printed value. Where “and” joins values, the source holds several entries; their conditions need not be identical. Identical values can stand only once. Like-named read-outs stand apart in the source and are kept apart here.

Assays:
[1] = tested on: SARS-CoV-2 (Omicron, B.1.1.529); settings: Omicon, Vero E6, replicates
SARS-CoV-2 (strain B.1) [2] = assay: SARS-CoV-2 infection in Ad5-hACE2 mice; format: in vivo, Ad5-hACE2 BALB/c mice
SARS-CoV-2 (strain B.1) [3] = tested on: SARS-CoV-2 (strain B.1); parameters: species or system KI-hACE2 mice; settings: mouse, in vivo
[4] = Tissue distribution study in rats; format: in vivo, Sprague Dawley rats; settings: rat, oral 100 mg/kg; for Cmax, GS-441525 in brain / Cmax, GS-441525 in kidney / Cmax, GS-441525 in liver / Cmax, GS-441525 in lung / Cmax, RTP in kidney / Cmax, RTP in liver / Cmax, RTP in lung: individual animals
Experimental: Three rats in each group were anesthetized at 1-, 4-, and 24-hours post-dosing. Blood samples were collected into the heparinized tubes which containing PhosSTOP and DTNB and centrifuged. Tissue samples, including liver, kidney, and lung were harvested after perfusion with saline and immediately homogenized for further analysis as previously described ([64]). […] For RMP and RTP determination, 50 μL of plasma or homogenate was immediately added to 150 μL of 2% formic acid and 5 μL of 10 μM ^13C,^15N-adenosine triphosphate (ATP) aqueous solution, then vortexed thoroughly and centrifuged at 4°C. Supernatant in a volume of 180 μL was mixed with an equivalent volume of water for solid-phase extraction (SPE) with a weak anion exchange plate (Waters Oasis WAX μElution plate). Finally, the eluate was gently evaporated to dryness under a gentle stream of air, and the residue was reconstituted with 100 μL H2O for analysis on a Waters Positive Pressure-96 processor.

[5] = pKa determination (fast-UV, Sirius T3); format: physicochemical; settings: methanol cosolvent titration (Sirius T3 Titrator); read-out: pKa Value (Basic)
Experimental: The pK a value of test compounds were detected by using a fast-UV method with Sirius T3 Titrator. First, the blank calibration and Fast UV buffer calibration were performed where an empty sample vial was placed in the sample position. The buffer was fully titrated, and reference spectra were collected at all pHs. The sample was then detected with the following process: Methanol was used as a cosolvent to measure the psKa (cosolvent dissociation constant). Five μL of the compound stock solution of 10 mM was added to a sample vial. Three weight/volume ratios of methanol cosolvent were tested and the total starting volume for titration was set to 1.5 mL. A spectrometer detected the turbidity, and the pH range of titration by a fast UV method was 2 to 12. The titration data was obtained from a proper titration and the psKa test result was obtained by Yasuda-Shedlovsky extrapolation method for fast UV psKa method.

[6] = LogP determination (1-octanol/PBS pH 7.4); format: physicochemical; settings: 1-octanol/PBS pH 7.4, pH 7.4
Experimental: The stock solutions of test compounds were prepared in DMSO to 10 mM or 30 mM. The 5 μL of stock solution (30 mM) or 15 μL of stock solution (10 mM) of each sample was placed into their proper 96-well rack. […] The assay was performed in duplicate. One stir stick was added to each vial and sealed with a molded PTFE/Silicone plug. […] After incubation, the stir sticks were removed by a magnet. To separate the phases, the samples were transferred and centrifuged at 25°C at 20,000 g for 20 min. The upper (1-octanol) and lower (buffer) phases were separated and transferred to the empty tubes. Aliquots of 5 μL were taken from the upper phase, followed by 495 μL of methanol. After 1 min of a vortex, aliquots of 50 μL were taken from the diluent, followed by 450 μL of methanol. Aliquots of 50 μL were taken from the lower phase, followed by 450 μL of methanol. The samples were evaluated by LC-MS/MS analysis, and all calculations were carried out using Microsoft Excel.

[7] = Thermodynamic solubility in water; format: physicochemical; settings: ultrapure water, 25°C
Experimental: Test compounds were weighed out for measuring the solubility (about 1.5 mg each in three separate 1.5 mL glass vials). For each compound, one vial was used to do the standard and the other two were used to measure the solubility in duplicate. The proper volume of ultrapure water was added to each vial of the solubility sample plate using pipettes. One stir stick was added to each vial and the vials were sealed using a molded polytetrafluoroethylene (PTFE)/silicone plug. […] Then the stir sticks were removed using a magnet, and the samples were transferred from the solubility sample plate into a filter plate with pipettes. All compounds were filtered under a vacuum condition. The filtrate was diluted 1000-fold with a mixture of H2O and acetonitrile (1:1 in v/v). The plates were vortexed for 5 min. For standards (STD), the necessary volume was calculated to dissolve each standard sample to the concentration of 1.5 mg/mL. DMSO was added to each standard sample. The standard vials were covered. The standard plate was placed on the Eppendorf Thermomixer Comfort plate shaker for 5 min at 25°C and 1100 rpm. After 5 min, each compound was completely dissolved. […]

[8] = Permeability and efflux ratio in Caco-2 cells; format: in vitro ADME; settings: human; for Papp A→B: AB; for Papp B→A: BA
Source text: ATV019, and ATV020 in Caco-2 cells.
Compound Caco-2 AB/BA (Papp (10-6 cm/s)) a Efflux ratio

[9] = macaques, NCATS of NIH ref 47; cited from earlier work

SMILES	% Inhibition ([1]; 0.208 uM)	% Inhibition ([1]; 0.625 uM)	% Inhibition ([1]; 2.5 uM)	% Inhibition ([1]; 5 uM)	% Inhibition ([1]; 10 uM)	Cmax, GS-441525 in brain ([4]; 1h, 100 mg/kg)	Cmax, GS-441525 in kidney ([4]; 1h, 100 mg/kg)	Cmax, GS-441525 in lung ([4]; 1h, 100 mg/kg)	Cmax, GS-441525 in kidney ([4]; 4h, 100 mg/kg)	Cmax, GS-441525 in lung ([4]; 4h, 100 mg/kg)	Cmax, RTP in lung ([4]; 4h, 100 mg/kg)	Cmax, GS-441525 in brain ([4]; 24h, 100 mg/kg)	Cmax, GS-441525 in kidney ([4]; 24h, 100 mg/kg)	Cmax, GS-441525 in lung ([4]; 24h, 100 mg/kg)	Cmax, RTP in lung ([4]; 24h, 100 mg/kg)	Papp A→B [8] [×10⁻⁶ cm/s]	Papp B→A [8] [×10⁻⁶ cm/s]	other results
CC(C)C(=O)OC[C@H]1O[C@@](C#N)(c2ccc3c(N)ncnn23)[C@H](O)[C@@H]1O [ATV006]	71.5175% and 88.4612%	99.4508% and 99.8921%	99.9835% and 99.9391%	99.9795% and 99.9931%	99.9442%	0.717 nmol/kg and 1.164 nmol/kg and 1.176 nmol/kg	220.56 nmol/kg and 166.84 nmol/kg and 182.64 nmol/kg	49 nmol/kg and 29.492 nmol/kg and 44.72 nmol/kg	49.24 nmol/kg and 31.336 nmol/kg and 40.16 nmol/kg	10.048 nmol/kg and 8.088 nmol/kg and 8.604 nmol/kg	0.328 nmol/kg and 0.343 nmol/kg and 0.26 nmol/kg	0 nmol/kg (2×) and 0.0506 nmol/kg	0.54 nmol/kg and 7 nmol/kg and 0.459 nmol/kg	0.136 nmol/kg and 1.289 nmol/kg and 0.0964 nmol/kg	0.191 nmol/kg and 0.249 nmol/kg and 0 nmol/kg	0.51	0.87	% Inhibition ([1]; 0.069 uM): 43.9482% and 49.6397%; Lung viral titer, Log10 (FFU/g) (SARS-CoV-2 (strain B.1) [2]; 250mg/kg orally once daily, 2 dpi, FFA, individual mice): 3.924 Log10 (FFU/g) and 2.623 Log10 (FFU/g) and 3.577 Log10 (FFU/g) and 3.827 Log10 (FFU/g); viral load and pathological damage of the lung (SARS-CoV-2 (strain B.1) [2]; ATV006 250 mg/kg, EIDD-2801 500 mg/kg, orally once daily): reduce the viral load and pathological damage of the lung; SARS-CoV-2 gRNA and sgRNA in lung (SARS-CoV-2 (strain B.1) [3]): hardly detectable; Cmax, GS-441525 in liver ([4]; 1h, 100 mg/kg): 56.04 nmol/kg and 36.188 nmol/kg and 53.92 nmol/kg; Cmax, RTP in kidney ([4]; 1h, 100 mg/kg): 0.0784 nmol/kg and 0 nmol/kg and 0.0835 nmol/kg; Cmax, RTP in liver ([4]; 1h, 100 mg/kg): 0.279 nmol/kg and 1.085 nmol/kg and 1.739 nmol/kg; Cmax, RTP in lung ([4]; 1h, 100 mg/kg): 0.167 nmol/kg and 0.107 nmol/kg and 0.1 nmol/kg; Cmax, GS-441525 in brain ([4]; 4h, 100 mg/kg): 0.208 nmol/kg and 0.227 nmol/kg and 0.506 nmol/kg; Cmax, GS-441525 in liver ([4]; 4h, 100 mg/kg): 21.084 nmol/kg and 14.292 nmol/kg and 18.936 nmol/kg; Cmax, RTP in kidney ([4]; 4h, 100 mg/kg): 0.354 nmol/kg and 0.345 nmol/kg and 0.186 nmol/kg; Cmax, RTP in liver ([4]; 4h, 100 mg/kg): 1.765 nmol/kg and 0.82 nmol/kg and 0.878 nmol/kg; Cmax, GS-441525 in liver ([4]; 24h, 100 mg/kg): 0.243 nmol/kg and 2.843 nmol/kg and 0.303 nmol/kg; Cmax, RTP in kidney ([4]; 24h, 100 mg/kg): 0.0664 nmol/kg and 0.068 nmol/kg and 0 nmol/kg; Cmax, RTP in liver ([4]; 24h, 100 mg/kg): 0.325 nmol/kg and 0.223 nmol/kg and 0.759 nmol/kg; pKa [5]: 3.66; logP at 1 h [6]: 0.86; solubility at 24 h [7]: 686 µg/mL (≈ 1900 µM); efflux ratio [8]: 1.7
N#C[C@@]1(c2ccc3c(N)ncnn23)O[C@H](CO)[C@@H](O)[C@H]1O [GS-441524, reference compound]	55.9865% and 27.3736% and 80.8013%	98.5871% and 97.6862%	99.9728% and 99.9712%	99.9879% and 99.9871%	99.9637% and 99.9769%	0.094 nmol/kg and 0 nmol/kg and 0.045 nmol/kg	42.2 nmol/kg and 25.492 nmol/kg and 37.804 nmol/kg	6.048 nmol/kg and 4.152 nmol/kg and 6.604 nmol/kg	28.184 nmol/kg and 26.156 nmol/kg and 22.136 nmol/kg	4.468 nmol/kg and 3.046 nmol/kg and 3.148 nmol/kg	0 nmol/kg (2×) and 0.0718 nmol/kg	0.0569 nmol/kg and 0.0928 nmol/kg and 0.0692 nmol/kg	0.0683 nmol/kg and 0.0848 nmol/kg and 0.152 nmol/kg	0.134 nmol/kg and 0.0467 nmol/kg and 0.0435 nmol/kg	0 nmol/kg (2×) and 0.04488 nmol/kg	1.22	1.2	oral bioavailability [9]: 8.3%; Cmax ([4]; GS-441524 in brain): 0.073 µmol/kg; Cmax ([4]; GS-441524 in kidney): 35.165 µmol/kg; Cmax ([4]; GS-441524 in liver): 8.776 µmol/kg; Cmax ([4]; GS-441524 in lung): 5.601 µmol/kg; Cmax, RTP in kidney ([4]; 1h): 0 nmol/kg; Cmax, RTP in lung ([4]; 1h): 0 nmol/kg; Cmax, GS-441525 in brain ([4]; 4h): 0 nmol/kg; Cmax, RTP in kidney ([4]; 4h): 0 nmol/kg; Cmax, RTP in kidney ([4]; 24h): 0 nmol/kg
